PMC8743659, “C1632 suppresses the migration and proliferation of non‐small‐cell lung cancer cells involving LIN28 and FGFR1 pathway” (Journal of Cellular and Molecular Medicine, 2021)
“Also recorded” adds a separate entry of the source.

What was measured:
A549 cells = assay: SA-β gal staining assay; type: cell-based, human; details: A549, 15, 30 and 60 mg/L, 5 days
Procedure: (§1) The assay was set up following the β‐galactosidase (SA‐β gal) staining Kit, which was obtained from Sigma. In brief, cells were washed once with PBS and fixed with stationary liquid provided in the kit at room temperature for 15 min. Next, the cells were incubated overnight at 37°C in dark with the 1 ml working solution containing 0.05 mg/ml 5‐bromo‐4‐chloro‐3‐indolyl‐b‐d‐galactopyranoside (X‐gal) and observed under a normal light microscope (Nikon).

A549R cells = assay: SA-β gal staining assay; type: cell-based, human; details: A549R, 15, 30 and 60 mg/L, 5 days
Procedure: as §1

CYP2D1 = biological target: T1, CYP2D1 (Rattus norvegicus, UniProt P10633); assay: Microsomal incubation (cocktail) assay, rat liver microsomes; type: in vitro ADME; details: 100 μM C1632, probe 10 μM dextromethorphan, 30 min, 37°C
T1 construct: 3.4 mg/ml pooled rat liver microsomes; from tissue; host or cells: pooled rat liver microsomes
T1 sequence (P10633 1-504): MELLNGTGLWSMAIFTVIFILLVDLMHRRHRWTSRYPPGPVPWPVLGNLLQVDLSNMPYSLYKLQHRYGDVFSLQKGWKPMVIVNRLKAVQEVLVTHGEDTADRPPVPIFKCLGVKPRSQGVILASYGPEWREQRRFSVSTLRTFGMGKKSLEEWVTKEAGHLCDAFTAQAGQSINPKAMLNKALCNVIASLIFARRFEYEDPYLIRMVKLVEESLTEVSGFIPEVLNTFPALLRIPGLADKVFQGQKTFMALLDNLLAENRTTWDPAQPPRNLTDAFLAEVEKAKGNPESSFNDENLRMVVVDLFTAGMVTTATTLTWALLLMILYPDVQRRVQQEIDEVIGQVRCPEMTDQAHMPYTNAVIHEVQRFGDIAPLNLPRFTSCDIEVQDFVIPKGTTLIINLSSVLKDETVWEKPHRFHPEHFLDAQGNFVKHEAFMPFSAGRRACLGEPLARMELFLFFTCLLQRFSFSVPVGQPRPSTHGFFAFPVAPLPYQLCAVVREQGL
Procedure: (§2) The microsomal incubation assay[41] was performed at 37°C in a 200 μl incubation system, which consisted of 3.4 mg/ml pooled rat liver microsomes, 100 μM C1632, and probe substrates (5 μM CYP3A2‐midazolam; 10 μM CYP2D1‐dextromethorphan; 250 μM CYP2C11‐tolbutamide; 10 μM CYP2B1‐bupropion; and 0.1 M Tris–HCl [pH 7.4]). After 5 min of incubation, 1 mM NADPH was added, and the assay was terminated after 30 min by cooling at −80°C. Next, 0.2 ml acetonitrile and 20 μl IS (100 ng/ml) were added to the reactant. Finally, the solution was thoroughly vortexed and centrifuged at 12,000 rpm for 10 min. The supernatant was analysed by UHPLC‐MS/MS.[42]

CYP2C11 = biological target: T2, CYP2C11 (Rattus norvegicus, UniProt P08683); assay: as above; type: in vitro ADME; details: 100 μM C1632, probe 250 μM tolbutamide, 30 min, 37°C
T2 construct: 3.4 mg/ml pooled rat liver microsomes; from tissue; host or cells: pooled rat liver microsomes
T2 sequence (P08683 1-500): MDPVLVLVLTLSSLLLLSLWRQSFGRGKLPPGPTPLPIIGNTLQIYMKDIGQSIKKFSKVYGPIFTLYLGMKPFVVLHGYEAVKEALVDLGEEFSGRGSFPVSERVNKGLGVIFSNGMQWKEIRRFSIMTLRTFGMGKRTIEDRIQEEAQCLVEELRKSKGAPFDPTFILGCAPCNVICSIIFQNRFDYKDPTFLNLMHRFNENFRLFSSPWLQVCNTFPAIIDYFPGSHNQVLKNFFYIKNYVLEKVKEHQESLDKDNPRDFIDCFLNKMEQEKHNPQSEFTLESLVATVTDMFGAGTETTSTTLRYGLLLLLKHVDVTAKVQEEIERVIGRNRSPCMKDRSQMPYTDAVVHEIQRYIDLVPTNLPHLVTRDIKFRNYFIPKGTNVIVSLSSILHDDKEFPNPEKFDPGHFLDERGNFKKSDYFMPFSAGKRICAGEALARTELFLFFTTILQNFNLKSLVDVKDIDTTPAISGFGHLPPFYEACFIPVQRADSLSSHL
Procedure: as §2

CYP3A2 = biological target: T3, CYP3A2 (Rattus norvegicus, UniProt P05183); assay: as above; type: in vitro ADME; details: 100 μM C1632, probe 5 μM midazolam, 30 min, 37°C
T3 construct: 3.4 mg/ml pooled rat liver microsomes; from tissue; host or cells: pooled rat liver microsomes
T3 sequence (P05183 1-504): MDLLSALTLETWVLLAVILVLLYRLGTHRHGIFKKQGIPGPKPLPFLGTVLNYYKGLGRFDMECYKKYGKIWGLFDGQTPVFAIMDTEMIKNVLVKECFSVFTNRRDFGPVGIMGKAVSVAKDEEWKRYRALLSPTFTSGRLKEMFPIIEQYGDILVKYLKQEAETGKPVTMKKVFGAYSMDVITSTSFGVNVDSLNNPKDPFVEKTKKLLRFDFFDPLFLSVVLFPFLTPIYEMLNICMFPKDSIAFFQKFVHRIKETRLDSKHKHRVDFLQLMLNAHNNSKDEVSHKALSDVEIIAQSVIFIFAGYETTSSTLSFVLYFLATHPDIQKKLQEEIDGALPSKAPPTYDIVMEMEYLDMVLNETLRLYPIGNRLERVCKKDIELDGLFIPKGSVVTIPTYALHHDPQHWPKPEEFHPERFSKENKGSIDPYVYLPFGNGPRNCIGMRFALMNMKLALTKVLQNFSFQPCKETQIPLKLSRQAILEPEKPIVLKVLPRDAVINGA
Procedure: as §2

CYP2B1 = biological target: T4, CYP2B1 (Rattus norvegicus, UniProt P00176); assay: as above; type: in vitro ADME; details: 100 μM C1632, probe 10 μM bupropion, 30 min, 37°C
T4 construct: 3.4 mg/ml pooled rat liver microsomes; from tissue; host or cells: pooled rat liver microsomes
T4 sequence (P00176 1-491): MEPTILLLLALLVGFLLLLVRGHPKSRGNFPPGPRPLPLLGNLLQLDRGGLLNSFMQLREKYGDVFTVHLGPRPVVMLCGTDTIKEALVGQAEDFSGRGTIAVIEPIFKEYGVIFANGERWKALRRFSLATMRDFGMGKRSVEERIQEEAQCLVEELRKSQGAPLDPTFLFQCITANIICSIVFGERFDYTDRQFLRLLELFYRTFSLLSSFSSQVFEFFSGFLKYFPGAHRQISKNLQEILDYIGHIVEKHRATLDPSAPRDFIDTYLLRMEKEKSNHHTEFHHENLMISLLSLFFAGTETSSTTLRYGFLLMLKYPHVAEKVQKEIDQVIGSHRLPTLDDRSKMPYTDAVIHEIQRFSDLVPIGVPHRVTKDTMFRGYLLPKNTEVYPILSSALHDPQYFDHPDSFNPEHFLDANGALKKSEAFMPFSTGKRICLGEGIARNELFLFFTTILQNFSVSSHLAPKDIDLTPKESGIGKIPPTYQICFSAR
Procedure: as §2

effect on CYP2D1 activity (CYP2D1): significantly inhibit
effect on CYP2C11 activity (CYP2C11): significantly inhibit
effect on CYP3A2 activity (CYP3A2): significantly inhibit
effect on CYP2B1 activity (CYP2B1): significantly inhibit
SMILES: CC(=O)N(C)c1cccc(-c2ccc3nnc(C)n3n2)c1 [C1632]
senescence (β-gal positive cells) (A549 cells): did not induce the senescence; also recorded: did not significantly increase
senescence (β-gal positive cells) (A549R cells): induce the senescence
